The values below come from patent publication US20180370918A1, “SORAFENIB HEMI-P-TOSYLATE MONOHYDRATE CRYSTAL AND PREPARATION PROCESS THEREOF” (CHIA TAI TIANQING PHARMACEUTICAL GROUP CO., LTD., priority 2015, published 2018).

Data set [1] in a line: Hygroscopicity test (Chinese Pharmacopoeia 2010, Guideline for Hygroscopicity Test of Drug). Format: physicochemical. As to the method:
The hygroscopicity test for the sorafenib hemi-p-tosylate monohydrate crystal of the present invention was conducted according to the Chinese Pharmacopoeia (2010), Part II, Appendix XIX J: Guideline for Hygroscopicity Test of Drug.

A short description of data set [2]: Stability test (Chinese Pharmacopoeia 2010, Guideline for Stability Test of Bulk Drug), purity by HPLC. Type of data set: physicochemical. As to the method:
Chromatographic column: Agilent peptide map chromatographic column (3.0×150 mm, 2.7 μm)
Mobile phase A: phosphate buffer solution (monopotassium phosphate (0.79 g) was weighted and dissolved in water, then diluted to 1000 ml, and further adjusted to pH=2.4 with phosphoric acid)
Mobile phase B: ethanol-acetonitrile (40:60)
Detection wavelength: 235 nm for detection
Column temperature: 55° C.
Solvent: mobile phase A-mobile phase B (1:3)
Preparation of a solution of a test sample: an appropriate amount of the test sample was weighted and dissolved in the solvent [mobile phase A-mobile phase B (1:3)], then diluted to a solution which comprises about 0.16 mg of sorafenib per 1 ml as the solution of the test sample.
The stability test for the sorafenib hemi-p-tosylate monohydrate crystal of the present invention was conducted according to the Chinese Pharmacopoeia (2010), Part 11, Appendix XIX C: Guideline for Stability Test of Bulk Drug and Pharmaceutical Preparation.

For the compound `CNC(=O)c1cc(Oc2ccc(NC(=O)Nc3ccc(Cl)c(C(F)(F)F)c3)cc2)ccn1` [sorafenib hemi-p-tosylate monohydrate], the “Hygroscopic weight grain (%)” value in data set [1] is recorded as 0.07%. Further, the Purity is 99.96% in data set [2] (Day 0); 99.97% in data set [2] (Exposure test to light (luminance: 6000 Lux), standing for 10 days); 99.96% in data set [2] (Shading test (luminance: 6000 Lux), standing for 10 days); 99.96% in data set [2] (Standing for 6 months at 25° C. ± 2° C. and humidity of 60% ± 5%); 99.96% in data set [2] (Standing for 10 days at 25° C. and humidity of 92.5% ± 5%); 99.96% in data set [2] (Standing for 10 days at 40° C.). The compound also gave a Purity in data set [2] (Standing for 10 days at 60° C.) of 99.95%. Moreover, the “Stability (conclusion in words)” value in data set [2] (results of Table 4) was “highly stable”.
